# Several values for one entry are separate records, joined by “and”; a condition that tells them apart may be missing. Identical values can stand only once.
# How the values were obtained:
# [1] = Storage stability of pseudopolymorphic forms (XRPD after storage); assay type: physicochemical; details: monohydrate II as starting material; one, three and six months; container, temperature, relative humidity per example
# [2] = test system: guinea pig trachea pre-contracted with carbachol; assay: Bronchorelaxation in vitro: carbachol pre-contracted guinea pig trachea rings, wash-out recovery factor (C-3.1)
# Experimental: Male Dunkin Hartley guinea pig were euthanized using carbon dioxide. The primary bronchus was removed and placed in ice-cold Krebs-Henseleit buffer of following composition (in mmol/l): […] For recording of isometric tension, the bronchial rings were mounted between two hooks. One hook was connected to a force transducer the other was moveable and allowed a precise adjustment of resting tension at 1.5 g. During the equilibration period of 60 min the tissue was washed every 20 min with buffer. […] After 30 min, a cumulative dose response curve of the test compound was constructed. Every concentration was incubated till the response was stable. […] The relaxation was expressed as percentage tension. […] The recovery factor was calculated as a ratio of bronchodilation 1 h after compound application and bronchodilation 1 h after removal (wash out) of test compound. […] Relaxation via Cinaciguat (comparative example 1) and Riociguat (comparative example 2) reached a steady state within the 1 h incubation time. […] In contrast, relaxation induced by comparative example 11 was further progressing during the wash out period (recovery factor 1.41).
# [3] = test system: pulmonary vascular resistance (PVR); details: cited from earlier work
# [4] = test system: thromboxane analog U46619 induced PAH in minipigs; assay: Haemodynamics (PAP, BP) in the anesthetized thromboxane challenged PAH minipig after inhaled (nebulized) application (C-2.1); assay type: in vivo, Göttingen minipig; details: inhaled; Ventavis 10 μg/kg nominal dose; comparative example 11 10, 30 and 100 μg/kg nominal dose; 240 min observation interval
# Outline: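 Anesthetized, ventilated Göttingen minipigs (2-6 kg) given continuous infusion (0.3-0.75 μg/kg/min) to raise mean PAP above 25 mmHg, dosing starting after a 30 min plateau. Compound in 1% DMSO/0.2% citric acid, pH 8, nebulized via Aeroneb Pro into the inspiratory arm (~7 min; stock 300 μg/kg). PAP by Swan-Ganz catheter, BP via carotid catheter.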
# [5] = test system: thromboxane analog U46619 induced PAH in minipigs with ODQ or L-NAME pretreatment; assay: PAH minipig model under oxidative stress / low NO (pretreatment by ODQ or L-NAME); assay type: in vivo, Göttingen minipig; parameters: PAP / BP: unit not given beside the values; details: for BP / PAP: Ventavis 10 μg/kg nominal dose inhaled
# Experimental: To simulate conditions of oxidative stress or low NO concentrations as assumed to be present in different cardiovascular disorders, comparative example 11 was evaluated with and without pretreatment by ODQ (inhibitor of sGC) or L-NAME (NOS inhibitor). […] In contrast, the effects of Ventavis® under conditions of oxidative stress or low NO concentrations were not enhanced. In addition, also under these pathophysiological conditions the duration of action of comparative example 11 was much longer compared to Ventavis®.
# [6] = test system: thromboxane analog U46619 induced PAH in minipigs; assay: PAH minipig model: comparison with and on top of standard of care (bosentan, sildenafil, riociguat); assay type: in vivo, Göttingen minipig
# Description: Efficacy of inhaled comparative example 11 was compared with systemically applied bosentan, sildenafil and riociguat (see FIG. 53a) in the PAH minipig model. […] Therefore inhaled application of comparative example 11 offers clear benefits as systemic effects are avoided, compared to standard of care.
# [7] = Protein binding via ultrafiltration assay (comparative example 2); assay type: in vitro ADME
# Description: For this assay, filter membranes of 30 kDa pore size were used to separate plasma and protein free ultrafiltrate. The driving force for filtration was applied by centrifugation. Prior to protein binding studies, the adsorption (recovery) of the test compound to the ultra-filtration device and the ability of the test compound to pass the filter membrane was checked by filtration of the test compound dissolved in buffer at four concentrations. Sufficient stability of the test compound and an almost complete recovery (≥90% of the actual amount of compound used for the experiment) was a prerequisite for the use of the ultrafiltration method. The amount of organic solvent added to the plasma may not exceed 2% of the total incubation volume. Blood samples were collected in heparinized tubes either pooled (all species except human and monkey) or individually (human and monkey) and were used within 24 h for incubation experiments in blood. Plasma was prepared by centrifugation of the heparinized blood samples. Plasma was stored at −15° C. until use. Plasma stability, Compound recovery, unspecific binding to the membrane and the test device as well as partitioning between blood cells and plasma were controlled. The substance-associated radioactivity was determined by liquid scintillation counting. With this analytical method, it is not possible to distinguish between unchanged substance and radioactive metabolites. For details of the radioanalytical methods and the work up of the samples see Goeller et al. (3). A description of the ultrafiltration method in general was published by Zhang et al. In 2012 (4).
# [8] = test system: isolated Langendorff-perfused rat heart; assay: Isolated perfused heart according to Langendorff: perfusion pressure and wash-out score (C-1.2); details: comparative example 11 300 nmol/l, others 100 nmol/l, n=6
# Experimental: Male Wistar rats (strain HsdCpb:WU) with a body weight of 200-250 g were anaesthetized with Narcoren® (100 mg/kg). The thorax was opened and the heart was then exposed, excised and connected to a Langendorff apparatus by placing a cannula into the aorta. The heart was perfused retrogradely at 9 ml/min at constant flow with a Krebs-Henseleit buffer solution (gassed with 95% O2 and 5% CO2, pH 7.4, 35° C.; composition in mmol/l: NaCl 118; KCl 3; NaHCO3 22; KH2PO4 1.2; MgSO4 1.2; CaCl2 1.8; Glucose 10; Na pyruvate 2). A pressure transducer registered the perfusion pressure in the perfusion system. The left ventricular pressure (LVP) was measured using a second pressure transducer connected to a water-filled balloon which was inserted into the left ventricle via the left atrium. The end diastolic pressure was initially set to 8 mm Hg by adjusting the volume of the balloon. The hearts were spontaneously beating. The signals from the pressure transducer were amplified, registered by a personal computer (Powerlab Chart software, ADInstruments).
# Then the hearts were perfused for a further 120 min without the test substance (wash-out phase). The reversibility of the effect (wash-out score) was calculated as a percentage of the PP recovery after 60 min of washout related to the maximum drop of PP induced by the test compound. The wash-out score obtained in this manner was taken as a measure for the residence time of the test substance at the site of action.
# [9] = Caco-2 permeability test (C-5.1); assay type: in vitro ADME, human; details: human, Caco-2 (2 μM)
# Experimental: The in vitro permeation of a test compound across a Caco-2 cell monolayer is a well-established assay system to predict the permeability from the gastro-intestinal tract (1). The permeability of the compounds of the present invention in such Caco-2 cells was determined as described below:
# Human caco-2 cells were seeded on 24-well insert plates and were allowed to grow for 14-16 days. For permeability studies, the test compounds were dissolved in DMSO and diluted to the final test concentration of 2 μM with transport buffer [Hanks' Buffered Salt Solution, Gibco/Invitrogen, further supplemented with glucose and HEPES]. For determination of the apical to basolateral permeability (PappA-B), the test compound solution was added to the apical side of the cell monolayer and transport buffer to the basolateral side of the monolayer; for determination of the basolateral to apical permeability (PappB-A), the test compound solution was added to the basolateral side of the cell monolayer and transport buffer to the apical side of the monolayer. Samples were taken from the donor compartment at the beginning of the experiment to confirm mass balance. After an incubation of 2 h at 37° C., samples were taken from both compartments. Samples were analyzed by LC-MS/MS, and the apparent permeability coefficients were calculated. Lucifer Yellow permeability was assayed for each cell monolayer to ensure cell monolayer integrity, and the permeability of Atenolol (low permeability marker) and Sulfasalazine (marker for active excretion) was determined for each batch as quality control.
# [10] = Riociguat 3 μg/kg/h systemically applied, % change per animal
compound,measurement,setting,value
O.O=C(O)c1ccc(CCN(CCc2ccccc2OCc2ccc(-c3ccc(C(F)(F)F)cc3)cc2Cl)[C@H]2CCCc3nc(C(=O)O)ccc32)cc1 [7d],Result (form after storage),[1],monohydrate I
"COC(=O)N(C)c1c(N)nc(-c2nn(Cc3ccccc3F)c3ncccc23)nc1N [comparative example 2, Riociguat]",Relaxation (%) (timepoint at 70 min) Mean,[2]; 1 μmol/l,29.1%
same,Relaxation (%) (timepoint at 130 min) Mean,[2]; 1 μmol/l,85.1%
"O=C(O)CCCCN(CCc1ccccc1OCc1ccc(CCc2ccccc2)cc1)Cc1ccc(C(=O)O)cc1 [comparative example 1, Cinaciguat]",Relaxation (%) (timepoint at 70 min) Mean,[2]; 1 nmol/l,60.4%
same,Relaxation (%) (timepoint at 130 min) Mean,[2]; 1 nmol/l,66.2%
"Ethyl 5-{[2-(2-{[3-chloro-4′-(trifluoromethyl)biphenyl-4-yl]methoxy}phenyl)ethyl]amino}-5,6,7,8-tetrahydroquinoline-2-carboxylate dihydrochloride [7a]",Result (form after storage),[1],monohydrate II
"CC#CCC(C)[C@H](O)/C=C/[C@@H]1[C@H]2C/C(=C/CCCC(=O)O)C[C@H]2C[C@H]1O (stereo partly drawn) [Ventavis, reference compound]",duration of action on haemodynamics (PVR) in clinical studies,"[3]; inhaled, patients",about 60 min
same,duration of action,[4],about 40 min
same,BP,"[5]; L-NAME pretreatment, Time 70",105.0 and 133.0 and 125.0
same,PAP,"[5]; L-NAME pretreatment, Time 70",31.7 and 27.4 and 28.7
same,BP,"[5]; L-NAME pretreatment, Time 80",106.0 and 131.0 and 123.0
same,PAP,"[5]; L-NAME pretreatment, Time 80",41.2 and 33.5 and 29.7
same,BP,"[5]; L-NAME pretreatment, Time 90",102.0 and 124.0 and 121.0
same,PAP,"[5]; L-NAME pretreatment, Time 90",42.2 and 37.9 and 32.1
same,BP,"[5]; L-NAME pretreatment, Time 100",101.0 and 124.0 and 117.0
same,PAP,"[5]; L-NAME pretreatment, Time 100",41.5 and 39.6 and 38.9
same,BP,"[5]; L-NAME pretreatment, Time 110",101.0 and 125.0 and 114.0
same,PAP,"[5]; L-NAME pretreatment, Time 110",41.5 and 41.0
same,BP,"[5]; ODQ pretreatment, Time 70",97.0 and 103.0 and 92.0
same,PAP,"[5]; ODQ pretreatment, Time 70",33.6 and 26.4 and 25.9
same,BP,"[5]; ODQ pretreatment, Time 80",98.0 and 105.0 and 92.0
same,PAP,"[5]; ODQ pretreatment, Time 80",37.4 and 32.8 and 32.1
same,BP,"[5]; ODQ pretreatment, Time 90",100.0 and 104.0 and 92.0
same,PAP,"[5]; ODQ pretreatment, Time 90",38.5 and 37.5 and 38.2
same,BP,"[5]; ODQ pretreatment, Time 100",101.0 and 104.0 and 93.0
same,PAP,"[5]; ODQ pretreatment, Time 100",38.8 and 40.6 and 39.2
same,BP,"[5]; ODQ pretreatment, Time 110",103.0 and 94.0
same,PAP,"[5]; ODQ pretreatment, Time 110",39.3 and 39.5 and 40.0
same,BP,"[5]; without pretreatment, Time 70",107.0 and 109.0 and 116.0
same,PAP,"[5]; without pretreatment, Time 70",26.1 and 28.2 and 29.6
same,BP,"[5]; without pretreatment, Time 80",102.0 and 110.0 and 113.0
same,PAP,"[5]; without pretreatment, Time 80",34.7 and 36.7 and 37.4
same,BP,"[5]; without pretreatment, Time 90",99.0 and 109.0 and 111.0
same,PAP,"[5]; without pretreatment, Time 90",38.9 and 41.2
same,BP,"[5]; without pretreatment, Time 100",98.0 and 106.0 and 108.0
same,PAP,"[5]; without pretreatment, Time 100",37.9 and 39.2 and 41.9
same,BP,"[5]; without pretreatment, Time 110",95.0 and 105.0 and 106.0
same,PAP,"[5]; without pretreatment, Time 110",38.4 and 39.5 and 42.2
same,effect on PAP after pretreatment of ODQ or L-NAME,"[5]; inhaled, comparative example 11 30 μg/kg ND, Ventavis 10 μg/kg nominal dose",not enhanced
"COC(=O)N(C)c1c(N)nc(-c2nn(Cc3ccccc3F)c3ncccc23)nc1N [comparative example 2, Methyl-4,6-diamino-2-[1-(2-fluorobenzyl)-1H-pyrazolo[3,4-b]pyridine-3-yl]-5-pyrimi-dinyl(methyl)carbamate, reference compound]",BP decrease %,[6]; [10],−0.3% and −8.8% and −10.9%
same,PAP decrease %,[6]; [10],−9.1% (2×) and −16.8%
same,effects on PAP and BP,"[6]; bosentan 1 mg/kg, sildenafil 300 μg/kg/h, riociguat 3 μg/kg/h systemically, comparative example 11 30 and 100 μg/kg inhaled",decreases in both PAP and BP
same,fraction unbound,[7]; Dog Beagle plasma,0.171
same,fraction unbound,[7]; Human (male) plasma,0.0497
same,fraction unbound,[7]; Rat Wistar plasma,0.157
same,wash-out score,[8]; PP recovery after 60 min of washout related to maximum drop of PP,98%
same,effect on perfusion pressure (PP),[8],pronounced reduction of perfusion pressure
same,"efflux ratio at 2 h, 2 μM",[9],11 ± 3.3
same,"Papp A→B at 2 h, 2 μM","[9]; concentration per compound 2.0 or 2.4 μM, read-out: Papp A-B (mean +/− SD)",35 ± 8.4 nm/s
same,"Papp B→A at 2 h, 2 μM","[9]; concentration per compound 2.0 or 2.4 μM, read-out: Papp B-A (mean +/− SD)",367 ± 75 nm/s
CCCCC[C@H](O)CC[C@@H]1[C@H]2Cc3cccc(OCC(=O)O)c3C[C@H]2C[C@H]1O [Treprostinil],mean change in PVR from baseline,"[3]; single administration, historical comparison",−30%
